Source: patent US5622962A, “5α-reductase inhibitors” (priority 1995, dated 1997)

Legend:
[1] = molecular target: T1, Type I 5α-Reductase from Human Scalp (Homo sapiens, UniProt P18405); experiment: Human Type I 5α-reductase assay (conversion of [3H]-testosterone to 5α-reduced metabolites); assay type: biochemical; conditions: 50 nM [3H]-testosterone, pH 7.5, 25°, 180 min, compared to control reaction mixtures; for inhibition at 0.3 µM: pH 7.5, 0.3 μM, read-out: percent inhibition of Type I AR
T1 construct: Scalp punch biopsies from graft recipient sites were obtained from human hair transplant procedures; from tissue; host or cells: human scalp punch biopsies (hair transplant graft recipient sites), homogenate, 100,000×g pellet
T1 sequence (P18405 1-259): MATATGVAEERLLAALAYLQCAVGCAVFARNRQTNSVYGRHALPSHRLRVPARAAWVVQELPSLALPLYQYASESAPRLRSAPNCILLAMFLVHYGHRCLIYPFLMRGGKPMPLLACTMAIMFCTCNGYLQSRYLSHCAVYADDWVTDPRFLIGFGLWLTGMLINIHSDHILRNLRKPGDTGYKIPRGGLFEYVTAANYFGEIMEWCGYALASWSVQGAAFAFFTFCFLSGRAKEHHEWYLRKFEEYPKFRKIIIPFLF

[2] = molecular target: T2, Type II 5α-Reductase from Human Prostate (Homo sapiens, UniProt P31213); experiment: Human Type II 5α-reductase assay (conversion of [3H]-testosterone to 5α-reduced metabolites); assay type: biochemical; conditions: sodium acetate pH 5.5, 25°, 30 min, compared to control reaction mixtures; for inhibition at 0.3 µM: pH 5.5, 0.3 μM, read-out: percent inhibition of Type II AR
T2 construct: The same procedure as above was used for preparations using tissue from prostate surgery; from tissue; host or cells: human prostate tissue from surgery, homogenate, 100,000×g pellet
T2 sequence (P31213 1-254): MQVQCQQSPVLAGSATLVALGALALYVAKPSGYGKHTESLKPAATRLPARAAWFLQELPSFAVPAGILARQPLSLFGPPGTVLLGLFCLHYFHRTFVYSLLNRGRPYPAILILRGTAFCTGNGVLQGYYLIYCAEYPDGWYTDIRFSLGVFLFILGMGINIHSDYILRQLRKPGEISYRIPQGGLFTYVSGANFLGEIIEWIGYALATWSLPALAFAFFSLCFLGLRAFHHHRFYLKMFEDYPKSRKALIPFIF

Compound | inhibition at 0.3 µM [1] | inhibition at 0.3 µM [2] | percent inhibition of Type I AR ([1]; 0.3 μM) | percent inhibition of Type II AR ([2]; 0.3 μM)
CN1C(=O)CC[C@]2(C)c3ccc(Cc4ccccc4)cc3CC[C@@H]12 [Example 287, (4aR)-(10bR)-8-benzyl-4,10b-dimethyl-1,2,3,4,4a, 5,6, 10b-octahydrobenzo[f]quinolin-3-one] | 82% | 37% |  | 
CN1C(=O)CC[C@]2(C)c3ccc(C(=O)c4ccccc4Cl)cc3CC[C@@H]12 [Example 288, (4aR)-(10bR)-8-(2-chlorobenzoyl)-4,10b-dimethyl-1,2,3,4,4a,5,6,10b-octahydrobenzo[f]quinolin-3-one] | 19% | 12% |  | 
C[C@]12CCC(=O)N[C@@H]1CCc1cc(CSc3ccccc3)ccc12 [Example 289, (4aR)-(10bR)-8-phenylthiomethyl-10b-methyl-1,2,3,4,4a,5,6,10b-octahydrobenzo[f]quinolin-3-one] | 23% | 24% |  | 
C[C@]12CCC(=O)N[C@@H]1CCc1cc(CSc3nc4ccccc4s3)ccc12 [Example 290, (4aR)-(10bR)-8-(2-benzothiazolyl)thiomethyl-10b-methyl-1,2,3,4,4a,5,6,10b-octahydrobenzo[f]quinolin-3-one] | 25% | 8% |  | 

Results, then the compound that gave them:

inhibition at 0.3 µM [1] | inhibition at 0.3 µM [2] | percent inhibition of Type I AR ([1]; 0.3 μM) | percent inhibition of Type II AR ([2]; 0.3 μM) | Compound
86% | 11% |  |  | CN1C(=O)CC[C@]2(C)c3ccc(-c4cccc(CNC(c5ccccc5)c5ccccc5)c4)cc3CC[C@@H]12 [Example 292, (+)-(4aR)-(10bR)-4-methyl-8-(3-diphenylmethylaminomethylphenyl)-10b-methyl-1,2,3,4,4a,5,6,10b-octahydrobenzo[f]quinolin-3-one]
 |  | 22% | 40% | (+)-(4aR)-(10bR)-8-(3-isoquinolinyl)-10b-methyl-3,4,4a,5,6,10b-hexahydrobenzo[f]quinolin-3-one [Example 142]
